Laboratory results as given in US7713960B2, “Inhibition of the Raf/Mek/P-Erk pathway for treating cancer” (University of South Florida, priority 2005, dated 2010).
Where “and” joins values, the source holds several entries; their conditions need not be identical. Equal values may be shown once. Where a name gives a salt, the structure may show the parent alone.

How the values were obtained:
Format in all cases: cell-based, human
[1] = test system: MDA-MB-231 cells; assay: Total cellular cAMP measurement, MDA-MB-231
Experimental: (§1) Total cellular cAMP measurement—The measurement of total cellular cAMP was done using a cAMP Biotrak ™ Enzymeimmunoassay (EIA) system (Amersham Biosciences, Piscataway, N.J.) according to the manufacturer's protocol. Briefly, 2000 cells were plated into each well of a 96 well plate. The next day cells were treated with increasing concentrations of ARA-211 or with vehicle for one hour. Alternatively, MDA-MB-231 cells were pre-treated with antagonists to the α1 (Prazosin, Sigma), α2 (Yohimbine, Sigma), β1 (Metoprolol, Sigma), and β2 (ICI 118.551, Sigma) adrenergic receptors at 100 nM for 15 minutes followed by treatment with 10 μM ARA-211 for 45 minutes. Cells were then lysed directly in the wells using the supplied lysis buffer. The lysate was transferred to a 96-well cAMP ELISA plate, and results were quantified using a Wallac Victor 2 plate reader.

[2] = test system: SNB-19 cells; assay: Total cellular cAMP measurement, SNB-19
Experimental: as §1

[3] = test system: P-Erk 1/2; assay: P-Erk 1/2 levels (Western blotting), MDA-MB-231
Experimental: (§2) Western Blotting—Treated cell samples were lysed in 30 mM HEPES, 10 mM NaCl, 5 mM MgCl2, 25 mM NaF, 1 mM EGTA, 1% Triton-X-100, 10% Glycerol, 2 mM Sodium orthovanidate, 10 μg/mL aprotinin, 10 μg/mL soybean trypsin inhibitor, 25 μg/mL leupeptin, 2 mM phenylmethylsulfonylfluoride (PMSF), 6.4 mg/mL p-nitrophenylphosphate for 30 minutes at 4° C., and proteins run on SDS-PAGE gels then transferred to nitrocellulose membranes. Membranes were blocked in either 5% milk in PBS, pH 7.4, containing 0.1% Tween-20 (PBS-T) or 1% BSA in TBS, pH 7.5, containing 0.1% Tween-20 (TBS-T). Phospho-STAT3 and phospho-AKT antibodies were diluted in 1% BSA in TBS-T while phospho-c-Raf, phospho-Mek, and phospho-p44/p42 MAPK antibodies (Cell Signaling) were diluted in 5% milk in PBS-T for either 1 hour at room temperature or overnight at 4° C. HRP-conjugated secondary antibodies (Jackson ImmunoResearch, West Grove, Pa.) were diluted in 5% milk in PBS-T or TBS-T at a 1:1000 dilution for one hour at room temperature. Western blots results were visualized using enhanced chemiluminescence. Stripping of the membranes for reblotting was done using stripping buffer (62.5 mM Tris pH 7.6, 2% SDS, 0.7% 2-mercaptoethanol) at 50° C. for 30 minutes.

[4] = test system: P-Erk 1/2; assay: P-Erk 1/2 levels (Western blotting), SF-539
Experimental: as §2

[5] = test system: P-Erk 1/2; assay: P-Erk 1/2 levels (Western blotting), A-549
Experimental: as §2

[6] = test system: SF-539 cells; assay: Anchorage-dependent growth (MTT assay), SF-539
Experimental: (§3) MTT Assay—2000 cells per well were plated into 96 well tissue culture plates, and the cells were allowed to attach overnight at 37° C. with 10% CO2. Cells were then treated with increasing concentrations of ARA-211, or vehicle (DMSO) and incubated for four days. At that time treatment medium was removed and replaced with 100 μl of lmg/ml MTT (Sigma-Aldrich, St. Louis, Mo.) in media and incubated at 37° C., 10% CO2 for 3 hours. After 3 hours the MTT media was removed and replaced with 100 μl/well of DMSO, rocked at room temperature for 5 minutes, then absorbance read at 540 nm on a micro-plate reader.

[7] = test system: A-549 cells; assay: Anchorage-dependent growth (MTT assay), A-549
Experimental: as §3

[8] = test system: HCT-116 cells; assay: Anchorage-dependent growth (MTT assay), HCT-116
Experimental: as §3

[9] = test system: SF-539 cells; assay: Apoptosis assay (Cell Death Detection ELISA), SF-539; conditions: 48 hours
Experimental: (§4) Apoptosis Assay—Apoptosis was analyzed using the Cell Death Detection ELISA (Roche, Indianapolis, Ind.) measuring cytoplasmic histone-associated mono- and oligonucleosome DNA fragments. Procedures were carried out according to the manufacturers protocol. Briefly, 1×10^5 cells were plated in 60 mm dishes and treated with various doses of ARA-211 or vehicle for 48 hours. Cells were lysed with the provided lysis buffer and lysate was incubated on the ELISA plate for 1 hour to capture the histone associated DNA indicative of apoptotic cells. Anti-DNA peroxidase conjugated antibody was added to detect the cleaved DNA and the microplate was washed and developed with ABTS substrate which was quantitated by microplate reader at 405 nm.

[10] = test system: A-549 cells; assay: Apoptosis assay (Cell Death Detection ELISA), A-549; conditions: 48 hours, two single values, dihydrochloride
Experimental: as §4

[11] = test system: SNB-19 cells; assay: Apoptosis assay (Cell Death Detection ELISA), SNB-19; conditions: 48 hours, two single values
Experimental: as §4

[12] = test system: P-Mek-1; assay: P-Mek-1 levels (Western blotting), MDA-MB-231
Experimental: as §2

[13] = test system: total Erk 1/2; assay: Total Erk 1/2 levels, MDA-MB-231; conditions: at 10 nM
Experimental: as §2

[14] = test system: P-Erk 1/2; assay: P-Erk 1/2 levels, MCF-7; conditions: MCF-7 (breast)
Experimental: as §2

[15] = test system: Rap-1; assay: Rap-1 activation assay, ACHN cells
Experimental: The effect of B2AR stimulation on Rap1 was investigated using the following methods: A Rap-1 activation assay kit (Upstate, Temecula, Calif.) was used according to protocol to determine if stimulation of the B2AR by ARA-211, and subsequent downstream signaling resulting in inhibition of P-Erk 1/2, is mediated by activation of Rap-1 directly by the Rap-1 guanine nucleotide exchange factor Epac. […] Cells were incubated with drugs for 1 hour unless noted otherwise. Cells were then lysed, the positive control lysate was incubated with 10 mM EDTA and 100 μM GTPγS and incubated for 30 minutes to load GTP onto Rap-1. Lysates from all samples were then incubated with 25 μg GST-RalGDS-Rap-1 binding domain beads for 45 minutes, washed with assay buffer 3×, resuspended in 40 μl of 2×Laemmli sample buffer and boiled for 5 minutes. Samples were resolved by SDS-PAGE electrophoresis, transferred to nitrocellulose, blotted overnight with 1 μ/ml polyclonal anti-Rap-1, and visualized by chemiluminescence.

Structure (SMILES): CC(C)(C)NCC(O)c1ccc(O)c(CO)n1 (centres unmarked) [ARA-211, 2-hydroxymethyl-3-hydroxy-6-(1-hydroxy-2-tert-butylaminoethyl) pyridine, dihydrochloride]
- cAMP (Fold Induction) [1]: 16.7 ± 5.4 Fold
- formation of cAMP [1]: induced the formation of CAMP
- adrenergic receptor selectivity (which antagonist blocks cAMP induction) ([1]; β1, β2, α1, α2 antagonists 100 nM pre-treatment, 10 μM ARA-211): highly selective for β2 adrenergic receptors
- cAMP (Fold Induction) [2]: 1.2 ± 0.4 Fold
- P-Erk ½ (% Inhibition) ([3]; MDA-MB-231): 100%
- levels of P-Erk 1/2 ([3]; MDA-MB-231, at 10 nM): suppressed potently
- inhibition of P-Erk 1/2 in cells ectopically expressing constitutively activated Mek-1 ([3]; MDA-MB-231 with CA-Mek, 10 μM, 48 hours): resistant
- P-Erk ½ (% Inhibition) [4]: 100%
- P-Erk ½ (% Inhibition) [5]: 0%
- Anchorage Dependent Growth (% Inhibition) [6]: 55 ± 6.9%
- Anchorage Dependent Growth (% Inhibition) [7]: 9.6 ± 6.1%
- Anchorage Dependent Growth (% Inhibition) [8]: 6.5 ± 4%
- Apoptosis (% Induction) [9]: 9 ± 1.7%
- Apoptosis (% Induction) [10]: 3.1% and 2.2%
- Apoptosis (% Induction) [11]: 0, 0%
- P-Mek-1 levels [12]: suppressed
- levels of total Erk 1/2 [13]: without affecting
- inhibition of P-Erk 1/2 levels [14]: did not
- Rap-1 activation (GTP-loaded Rap-1) ([15]; 10 μM, 1 hour): activated Rap-1
- Rap-1 activation after blocking PKA kinase activity ([15]; pre-treatment with 10 μM H89 (1 hr) followed by ARA-211): had no effect on the ability of ARA-211 to stimulate Rap-1 activation
